From patent US10233151B2, “Use of a novel 3-aryl-4-catechol-pyrrole-N-propanol compound and the derivatives thereof to treat cancer and diseases related to excessive angiogenesis” (Centre National de la Recherche Scientifique (CNRS), priority 2014, dated 2019)

Tests used:
[1] = EPR at 77 K, disappearance of the O2°- signal; settings: KO2 2.5 mM in DMSO, dependent on concentration
Method: In order to follow the direct interaction of compound (1) with superoxide anion, solid potassium superoxide (KO2) was dissolved by sonication in DMSO (final concentration 2.5 mM), then mixed with compound (1) and immediately cooled by immersion in liquid nitrogen. EPR analysis at 77 K (liquid nitrogen) was carried out with a MiniScope MS 100 EPR spectrometer, operating at a frequency of 9.5 GHz (X-band) with the following parameters: magnetic field: 336.0±49.8 mT; sweep time: 20 s; sampling: 4096 points; modulation amplitude: 0.10 mT; modulation frequency: 100 kHz; gain: 900; microwave power: 6 mW.

[2] = system: human endothelial cells (HUVEC); test: De novo formation of vascular tubes on Matrigel; format: cell-based; settings: HUVEC in Matrigel, 24 hours
Method: In order to monitor the effect of compound (1) on “de novo” formation of vascular tubes, human endothelial cells (HUVEC) were cultured in a matrix (Matrigel), in the presence or absence of compound (1). After 24 hours, the effect of compound (1) is analyzed by optical microscopy and is illustrated by photographs. […] Compound (1) thus acts directly on growing endothelial cells by blocking the formation of capillaries, in contrast to the absence of effect on a capillary network already formed, in the “quiescent” state.

[3] = EPR competition with BMPO, superoxide anion from KO2 in DMSO (organic phase); settings: KO2 5 mM in DMSO, BMPO 25 mM, room temperature; read-out: IC50, inhibition of the formation of the BMPO superoxide adduct
Method: The reactivity of compound (1) with superoxide anion in the organic phase was studied by EPR at room temperature using a competition method with the superoxide trapping reagent BMPO (5-tent-butoxycarbonyl-5-methyl-1-pyrroline N-oxide) (FIG. 1A). The superoxide anion source is potassium salt (KO2) used at 5 mM in DMSO after ultrasound-assisted dissolution. The concentrations used for compound (1) are between 0.31 and 40 μM. The trapping reagent BMPO is used at a final concentration of 25 mM. These experiments were carried out with a MiniScope MS 100 EPR spectrometer (Magnettech GmbH, Germany), operating at a frequency of 9.5 GHz (X-band) with the following parameters: magnetic field: 336.0±9.9 mT; sweep time: 20 s; sampling: 4096 points; modulation amplitude: 0.10 mT; modulation frequency: 100 kHz; gain: 900; microwave power: 100 mW.

A549 cells = test: Cell growth test (CellTiter-Blue), A549; format: cell-based; settings: Homo sapiens; A549, normoxia, 72 hours; read-out: IC50 (50% decrease in cell growth)
Method: (§1) The biological activity of compound (1), as well as that of its structural analogues, was studied in vitro on 7 different cancer cell lines: • HCT-116 (colorectal cancer) • U87 (glioblastoma) • K562 (myeloid leukemia) and K562 R • MDA-MB 231 (mammary adenocarcinoma) • MCF-7 (mammary adenocarcinoma) • A549 (pulmonary alveolar adenocarcinoma)
(§2) The cells selected for this study were incubated at 37° C. in the presence of compound (1) added in the culture medium at various concentrations and at various times. The set of experiments carried out made it possible to determine the degree of cytotoxicity of the compound tested (IC50), its capacity to induce cell death by apoptosis, in close dependence on extracellular superoxide anion for its activation.
(§3) The effect of compound (1) on the growth of HCT-116, U87, K562, K562R, MDA-MB 231, MCF-7 and A549 cells, cultured in normoxia, was evaluated using a cell growth test (CellTiter-Blue™ Cell Viability Assay, Promega).

HCT-116 cells = test: Cellular superoxide anion signal, DHE probe, HPLC-fluorimetry; format: cell-based; settings: HCT-116, 50 μM for 3 hours, DHE 10 μM 20 minutes, normoxia
Method: The effect of compound (1) on superoxide anion was studied following the treatment of HCT-116 cells with 50 μM compound (1) for 3 hours and followed by incubation with the probe dihydroethidium (DHE) (10 μM) for 20 minutes. After removing the culture medium and washing with ice-cold DPBS, the cells were collected in 1 ml of cold DPBS. After centrifugation at 1000 g for 5 minutes, the pellet was taken up in 150 μl of PBS with Triton X100 (0.1%), shaken and centrifuged at 1000 g for 5 minutes. The supernatant was mixed with a 0.2 M solution of HClO4 in methanol, shaken and placed on ice for 2 hours. After centrifugation at 20000 g for 30 minutes, the supernatant is analyzed by HPLC coupled with fluorescence (λex=510 nm, λcm=595 nm). In the untreated cells (continuous line), the first peak at tR=5.16 minutes corresponds to the oxidized form “E+”, product of oxidation by peroxidases, and the second peak at tR =5.71 minutes to the oxidized form 2-OH E+, specific to the interaction with superoxide anion. In the treated cells, the first peak at tR=5.29 minutes corresponding to the oxidized form “E+” is increased, whereas the second peak at tR=5.71 minutes, corresponding to the oxidized form 2OH E+, specific to the interaction with superoxide anion, was suppressed. […] (FIG. 10).

[4] = system: caspases 3 and 7 in U87 cells; test: Caspase 3 and 7 activity (ApoONE test), U87; format: cell-based, human; settings: U87, normoxia, 24 hours, 1 μM to 50 μM
Method: (§4) In order to specify whether compound (1) leads to apoptotic cell death, the activity of caspases 3 and 7, marker enzymes of apoptosis, was measured using the ApoONE test (Promega) in HCT-116, U87 and HL60 cells treated in normoxia for 24 hours with compound (1) at concentrations varying from 1 μM to 50 μM.

MDA-MB 231 cells = test: Cell growth test (CellTiter-Blue), MDA-MB 231; format: cell-based; settings: Homo sapiens; MDA-MB 231, normoxia, 72 hours; read-out: IC50 (50% decrease in cell growth)
Method: as §1, §2, §3

[5] = system: caspases 3 and 7 in HCT-116 cells; test: Caspase 3 and 7 activity (ApoONE test), HCT-116; format: cell-based
Method: as §4
In order to determine the role of superoxide anion, produced by the cells, in the activation of compound (1), HCT-116 cells were pretreated for 1 hour with the enzyme superoxide dismutase (SOD1) at 50 U/ml, then treated with compound (1). The cells were analyzed to evaluate, firstly, cell survival in normoxia (72 hours of treatment) and in hypoxia (48 hours of treatment). Secondly, the formation of condensed chromatin in normoxia and the activity of caspases 3 and 7 in normoxia were evaluated.

U87 cells = test: Cell growth test (CellTiter-Blue), U87; format: cell-based; settings: Homo sapiens, U-87 MG; U87, normoxia, 72 hours; read-out: IC50 (50% decrease in cell growth)
Method: as §1, §2, §3

SMILES: OCCCn1cc(-c2ccccc2)c(-c2ccc(O)c(O)c2)c1 [compound (1)]
- EPR signal of superoxide anion [1]: decrease in the EPR signal of superoxide anion
- de novo formation of vascular tubes (capillaries) [2]: prevents the formation of capillaries
- IC50 [3]: 2.5 µM
- IC50 (A549 cells): 15 µM
- 2-OH E+ signal (DHE oxidized by superoxide anion) (HCT-116 cells): inhibition of the 2OH E+ signal
- E+ signal (DHE oxidized by peroxidases or catalase) (HCT-116 cells): increase in the E+ signal
- activity of caspases 3 and 7 [4]: significant activation of both caspases
- IC50 (MDA-MB 231 cells): 20 µM
- activation of caspases 3-7 after SOD pretreatment ([5]; HCT-116, SOD1 50 U/ml pretreatment, normoxia): completely suppressed
- activity of caspases 3 and 7 ([5]; HCT-116, normoxia, 24 hours, 1 μM to 50 μM): significant activation of both caspases
- IC50 (U87 cells): 7 µM
